Test results: the NIST ThermoML archive (doi:10.1021/je0604030)
± gives the expanded uncertainty stated by the source.

Conditions: Liquid, Ebulliometric method (Recirculating still)

| SMILES | vapor or sublimation pressure (159.61 K) | vapor or sublimation pressure (161.58 K) | vapor or sublimation pressure (169.38 K) | vapor or sublimation pressure (173.9 K) | vapor or sublimation pressure (178.93 K) |
| --- | --- | --- | --- | --- | --- |
| FC(F)(F)F [tetrafluoromethane] | 243 ± 8 kPa | 269 ± 9 kPa | 431 ± 14 kPa | 517 ± 17 kPa | 651 ± 21 kPa |
| C [methane] | 1567 ± 50 kPa | 1695 ± 54 kPa | 2276 ± 73 kPa | 2672 ± 86 kPa | 3170 ± 100 kPa |
